Assay results from US5883133A, “Substituted cinnamic acid guanidides, a process for their preparation, their use as medicaments or diagnostic agents and medicaments comprising them” (priority 1995, dated 1999).
Counter-ions that a name gives are not always drawn.

Legend:
[1] = molecular target: T1, Na^+ /H^+ exchanger of rabbit erythrocytes (Oryctolagus cuniculus, UniProt P23791); test: Inhibition of the Na+/H+ exchanger of rabbit erythrocytes (amiloride-sensitive sodium influx, flame photometry); type: cell-based, rabbit (White New Zealand); details: pH 7.4, 37° C., hyperosmolar salt/sucrose medium
T1 construct: exchanger of rabbit erythrocytes; endogenous in cells; host or cells: erythrocytes from ear-artery blood of White New Zealand rabbits (Ivanovas) fed 2% cholesterol for six weeks
Source text: Inhibitors of the Na^+ /H^+ exchanger of rabbit erythrocytes:
White New Zealand rabbits (Ivanovas) were given a standard diet with 2% of cholesterol for six weeks in order to activate the Na^+ /H^+ exchange so that the Na^+ influx into the erythrocytes via Na^+ /H^+ exchange can be determined by flame photometry. The blood was taken from the ear arteries and rendered uncoagulable by 25 IU/ml of heparin potassium. A portion of each sample was used for duplication determination of the hematocrit by centrifugation. Aliquots of in each case 100 μl were used for measurement of the initial Na^+ content of the erythrocytes.
To determine the amiloride-sensitive sodium influx, 100 μl of each blood sample were each incubated at pH 7.4 and 37° C. in 5 ml of a hyperosmolar salt/sucrose medium (mmol/l: 140 NaCl, 3 KCl, 150 sucrose, 0.1 ouabain, 20 tris-hydroxymethyl-aminomethane). The erythrocytes were then washed three times with ice-cold MgCl2 /ouabain solution (mmol/l: 112 MgCl2, 0.1 ouabain) and hemolyzed in 2.0 ml of distilled water. The intracellular sodium content was determined by flame photometry.
The net Na^+ influx was calculated from the difference between the initial sodium levels and the sodium content of the erythrocytes after incubation. […]

[2] = tested on: rat hearts; details: isolated rat hearts, cited from earlier work

T1 sequence (P23791 whole entry): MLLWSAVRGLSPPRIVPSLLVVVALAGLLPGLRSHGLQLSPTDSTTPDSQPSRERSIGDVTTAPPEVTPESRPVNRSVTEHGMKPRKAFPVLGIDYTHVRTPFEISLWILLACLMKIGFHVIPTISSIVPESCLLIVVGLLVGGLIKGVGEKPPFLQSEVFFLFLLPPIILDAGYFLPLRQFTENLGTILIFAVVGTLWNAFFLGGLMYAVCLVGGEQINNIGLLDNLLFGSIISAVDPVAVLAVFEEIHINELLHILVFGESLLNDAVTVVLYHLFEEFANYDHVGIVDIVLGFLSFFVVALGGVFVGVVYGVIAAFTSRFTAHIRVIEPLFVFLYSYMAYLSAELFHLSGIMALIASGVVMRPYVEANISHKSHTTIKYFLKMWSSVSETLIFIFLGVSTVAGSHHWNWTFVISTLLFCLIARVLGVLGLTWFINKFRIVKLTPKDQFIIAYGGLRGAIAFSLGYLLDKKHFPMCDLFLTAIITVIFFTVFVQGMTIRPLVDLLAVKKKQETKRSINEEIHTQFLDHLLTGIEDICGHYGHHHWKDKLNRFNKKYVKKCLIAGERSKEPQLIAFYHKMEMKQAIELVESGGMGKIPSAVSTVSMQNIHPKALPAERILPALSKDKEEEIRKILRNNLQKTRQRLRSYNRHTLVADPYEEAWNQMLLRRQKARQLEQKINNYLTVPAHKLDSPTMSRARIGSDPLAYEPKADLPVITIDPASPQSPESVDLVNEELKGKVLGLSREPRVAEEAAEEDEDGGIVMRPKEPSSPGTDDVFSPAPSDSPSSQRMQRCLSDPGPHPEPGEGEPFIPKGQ

## C/C(=C\c1ccc(N(C)C)cc1)C(=O)N=C(N)N [Example 1, E-3-(4-Dimethylaminophenyl)-2-methyl-propenoic acid guanidide hydrochloride]
[1]
  IC50: < 1000 nM

## NC(N)=NC(=O)c1nc(Cl)c(N)nc1N [amiloride]
[2]; Eur. Heart J. 9 (suppl. 1): 167 (1988)
  suppression of artificially induced ventricular fibrillation: suppressed completely

## CCN(c1nc(N)c(C(=O)N=C(N)N)nc1Cl)C(C)C [ethylisopropylanmiloride, Ethylisopropylamiloride]
[2]; compared with amiloride
  potency in ventricular fibrillation model relative to amiloride: even more potent than amiloride

## C/C(=C\c1ccc(OCCCN(C)C)cc1)C(=O)N=C(N)N [Example 2, E-3-[4-(3-Dimethylaminopropoxy)phenyl)-2-methyl-propenoic acid guanidide dihydrochloride]
[1]
  IC50: < 1000 nM
